Reference: paper PMC3228903 (The FEBS journal, 2011)
Positions count from the first letter of the chain named. Where two headings read alike, the source gives them in different places.

Assays:
WT MAO A = conditions: cited from earlier work; for Ki: WT MAO A
Ile199Ala MAO B = target: T1, Ile199Ala MAO B (Homo sapiens, UniProt P27338, I199A); assay: Steady-state substrate oxidation and pH dependence, Ile199Ala MAO B; type: biochemical
T1 sequence (P27338 1-520 I199A): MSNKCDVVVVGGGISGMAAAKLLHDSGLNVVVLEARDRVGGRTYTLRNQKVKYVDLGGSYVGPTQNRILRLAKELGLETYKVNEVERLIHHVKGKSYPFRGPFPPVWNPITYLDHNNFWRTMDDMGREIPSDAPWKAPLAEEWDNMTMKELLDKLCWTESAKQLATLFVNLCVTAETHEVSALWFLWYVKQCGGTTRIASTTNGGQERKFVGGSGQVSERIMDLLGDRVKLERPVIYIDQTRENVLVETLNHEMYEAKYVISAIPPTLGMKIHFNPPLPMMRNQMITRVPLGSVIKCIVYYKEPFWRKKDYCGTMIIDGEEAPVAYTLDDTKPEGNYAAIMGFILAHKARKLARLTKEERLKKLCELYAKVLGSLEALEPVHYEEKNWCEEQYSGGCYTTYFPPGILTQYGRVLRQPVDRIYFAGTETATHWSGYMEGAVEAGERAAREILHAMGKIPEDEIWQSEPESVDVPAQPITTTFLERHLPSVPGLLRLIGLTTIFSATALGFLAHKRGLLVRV

[1] = target: T2, Ile199Ala/Tyr326Ala MAO B (Homo sapiens, UniProt P27338, I199A/Y326A); assay: Steady-state substrate oxidation and pH dependence, Ile199Ala/Tyr326Ala MAO B; type: biochemical
T2 sequence (P27338 1-520 I199A/Y326A): T1 sequence (P27338 1-520 I199A) with Y326A

MAO B Ile199Ala = target: T3, MAO B Ile199Ala (Homo sapiens, UniProt P27338, I199A); type: biochemical
T3 sequence (P27338 1-520 I199A): T1 sequence (P27338 1-520 I199A)

[2] = target: T4, MAO B Ile199Ala-Tyr326Ala (Homo sapiens, UniProt P27338, I199A/Y326A); type: biochemical
T4 sequence (P27338 1-520 I199A/Y326A): T1 sequence (P27338 1-520 I199A) with Y326A

WT MAO B [3] = target: T5, WT MAO B (Homo sapiens, UniProt P27338); conditions: pH 7.5; cited from earlier work
T5 sequence (P27338 1-520): T1 sequence (P27338 1-520 I199A) with A199I

WT MAO B [4] = target: T5, WT MAO B; assay: Inhibition of WT MAO B, Ki from initial rates of substrate oxidation; type: biochemical
WT MAO B [5] = target: T5, WT MAO B; assay: Steady-state substrate oxidation and pH dependence, WT MAO B; type: biochemical; conditions: pH 7.5
[6] = Ki, Ile199Ala single mutant, pH 7.5
[7] = Ile199Ala-Tyr326Ala double mutant
[8] = Ile199Ala-Tyr326Ala double mutant, pH 9.3

N[C@@H]1C[C@H]1c1ccccc1 (racemic) [Tranylcypromine]
Ki (WT MAO A): 19 µM

NCc1ccccc1 [Benzylamine, benzylamine]
V/K extrapolated for fully deprotonated free enzyme, of WT activity (Ile199Ala MAO B; single mutant): 42%
KM ([1]; I199A-Y326A, pH 7.5): too high to measure
2nd order rate ([1]; I199A-Y326A, pH 7.5, no saturation): 2nd order rate =: 0.0106 ±0.0002 μM^−1min^−1
V/K extrapolated for fully deprotonated free enzyme, of WT activity ([1]; double mutant): ~ 5%

C(=CCc1ccccc1)Cc1ccccc1 [DPB, 1,4-Diphenyl-2-butene]
Ki (MAO B Ile199Ala; [6]): 8.1 ± 1.6 µM
binding / inhibition in words [2, 7]: no detectable binding
Ki [2, 8]: no inhibition
Ki (WT MAO B [3]): 34.5 ± 1.4 µM

C(C=Cc1ccccc1)=Cc1ccccc1 [DPBD, 1,4-Diphenyl-1,3-butadiene]
Ki (MAO B Ile199Ala): 1 ± 0.03 µM
binding / inhibition in words [2, 7]: no detectable binding
Ki [2, 8]: no inhibition
Ki (WT MAO B [3]): 7 ± 0.2 µM

CC(C)=CCC/C(C)=C/CC/C(C)=C/CO [Farnesol, trans,trans-farnesol]
Ki (MAO B Ile199Ala; [6]): 2.7 ± 0.4 µM
Ki [2]: 18 ± 3 µM
binding / inhibition in words [2, 7]: weaker binding
binding to human MAO A in words (WT MAO A; previous work): do not bind

Cc1nccc2c1[nH]c1ccccc12 [Harmane, harmane]
Ki (WT MAO B [4]): 140 ± 47 µM
Ki (MAO B Ile199Ala): 550 ± 50 µM
Ki [2]: 165 ± 17 µM
Ki (WT MAO A): 0.58 ± 0.02 µM

O=C1Nc2ccccc2C1=O [Isatin]
Ki (WT MAO A): 15 µM

CN(C)c1ccc2nc3ccc(=[N+](C)C)cc-3sc2c1 [Methylene Blue, methylene blue]
binding / inhibition in words [2, 7]: affinity higher than that observed with WT MAO B

NCCCCc1ccccc1 [Phenylbutylamine, phenylbutylamine]
Km (WT MAO B [5]): 19 ± 3 µM
kcat (WT MAO B [5]): 1.83 ± 0.083 s⁻¹
Km (Ile199Ala MAO B; I199A, pH 7.5): 8.9 ± 0.7 µM
kcat (Ile199Ala MAO B; I199A, pH 7.5): 2.25 ± 0.05 s⁻¹
Km ([1]; I199A-Y326A, pH 7.5): 55 ± 2 µM
kcat ([1]; I199A-Y326A, pH 7.5): 2.37 ± 0.017 s⁻¹

NCCc1ccccc1 [Phenylethylamine, Phenethylamine]
increase in KM relative to WT enzyme (Ile199Ala MAO B; single mutant, pH 7.5): 4 fold
KM value higher than WT enzyme ([1]; double mutant, pH 7.5): 75 fold

Cc1ccc2c(c1)c1c3n2CCNC3CCC1 (stereo not shown) [Pirlindole, pirlindole]
Ki (WT MAO B [4]; WT MAO B, pH 7.5): No inhibition
Ki (WT MAO B [4]; WT MAO B, pH 7.5, listed as pirlindole): neither MAO B nor the Ile199Ala single mutant are inhibited
Ki (MAO B Ile199Ala; Ile199Ala single mutant, pH 7.5): No inhibition
Ki (MAO B Ile199Ala; Ile199Ala single mutant, pH 7.5, listed as pirlindole): neither MAO B nor the Ile199Ala single mutant are inhibited
Ki [2]: 4.1 ± 0.2 µM
Ki (WT MAO A): 0.92 ± 0.04 µM

C[C@H](NCc1ccc(OCc2cccc(F)c2)cc1)C(N)=O [Safinamide]
weaker affinity than WT MAO B ([2]; double mutant relative to WT MAO B): ~ 10 fold

NC1CCc2ccccc21 (stereo not shown) [aminoindane]
binding / inhibition in words [2]: Weak binding

CNC1CCc2ccccc21 (stereo not shown) [methylaminoindane]
binding / inhibition in words [2]: Weak binding

NCc1ccc(C(F)(F)F)cc1 [p-CF3-benzylamine]
V/K extrapolated for fully deprotonated free enzyme, of WT activity (Ile199Ala MAO B; single mutant): 33%
V/K extrapolated for fully deprotonated free enzyme, of WT activity ([1]; double mutant): 24%

NS(=O)(=O)Cc1noc2ccccc12 [zonisamide]
binding / inhibition in words [2, 7]: no detectable inhibition
